This is an account of results in patent EP1501797B1, “3-(SUBSTITUTED AMINO)-1H-INDOLE-2-CARBOXYLIC ACID ESTER AND 3-(SUBSTITUTED AMINO)-BENZO[B]THIOPHENE-2-CARBOXYLIC ACID ESTER DERIVATIVES AS INTERLEUKIN-4 GENE EXPRESSION INHIBITORS” (Aventis Pharmaceuticals Inc., priority 2002, dated 2003).

SMILES strings stand for the structures.

For one data set, the system named is IFN-γ. Nature of the data set: Human primary Th2 cells, anti-CD3/anti-CD28 activated, IFN-γ ELISA. In kind it is cell-based. The settings on record: human primary Th2 cells, anti-CD3 and anti-CD28 (Table 5). As to the method:
(§1) Briefly, CD4^+CD45RA^+ T cells, isolated from donor peripheral blood mononuclear cells of healthy donors, are educated in the presence of anti-CD3/CD28 antibodies and various growth factors to obtain either a Thl-like or Th2-like phenotypes as determined by the known cytokine profiles of these two cell types.
(§2) Peripheral blood mononuclear cells (PBMC) are prepared from human blood by Ficoll-Hypacque (Pharmacia). The cells are washed two times in Hanks balanced salt solution (HBSS) and counted.
(§3) Naive T cells (CD4^+/CD45RA ) are prepared by negative selection method using following antibodies and Dynabeads: anti-CD8, anti-HLA-DR, (where HLA means human leucocyte antigen) anti-CD14, anti-CD16, anti-CD19, anti-CD45RO antibodies (all from R&D Systems, 1-2 µg/ml) are added to the cells, and the cells are kept on ice for 30 min. The cells are washed two times in HBSS, and goat anti- mouse Ig-beads, (bead:target ratio, 5:1) are added. The cells and beads are slowly rotated at 4°C for 20 min. (following the protocol supplied from Dynal). The supernatant is removed and fresh goat anti-mouse Ig-beads are added to the supernatant, which is slowly rotated at 4°C for 20 min. The cells are counted and phenotypically characterized by flow cytometric analysis.
(§4) CD4^+/CD45RA^+ cells at a density of 10^6/ml in RPMI, is prepared and added to RPMI medium containing 10% Hyclone serum/ glutamine and 1-2 µg/ml anti-CD28 Ab. The cells are split in two aliquots. For Th1 cells: anti-IL-4 Ab (1-2 µg/ml), IFN-γ (1 µg/ml, or 5000 units/ml) are added to the wells. For Th2 cells: IL-4 (100-200 ng/ml), anti-IFN-γ neutralizing Ab (1-2 µg/ml), anti-IL-12 neutralizing Ab (1-2 µg/ml) are added into the wells. […] The cells are transferred to fresh wells and grown in 200 units/ml IL-2 for 2 weeks by feeding them every other day with IL-2 containing medium and splitting the cultures 1:2 or 1:3 as needed. The degree of polarization is determined by intracellular staining of cells with anti-IFN-γ and anti-IL-4 antibodies from Pharmingen, and using flow cytometry from Becton Dickinson (BD), according to manufacturers description. The cells are stimulated with PHA and alloantigens at day 14 and 28 as described below. Eight days after the second allostimulation the cells can be used for compound screening or frozen for future use. For compound testing, large quantities of Th1 and Th2 cells derived from a given donor (NYTh1 and NYTh2) were expanded and frozen as aliquots in liquid nitrogen. The cells are thawed and cultured as and when needed. The thawed cells are stimulated with alloantigen/PHA combination. The cells are used for compound screening after 8-10 days in culture.
(§5) Re-stimulation by allogeneic cells: Human PBMCs, to be used as alloantigens, are isolated from freshly drawn blood by Ficoll separation. […] Cells are counted and diluted to a final concentration of 2 x 10^6/ml in medium containing 10 µg/ml PHA and 200 units/ml IL-2.
(§6) Ninetysix well Falcon tissue culture plates (Fisher Scientific) are coated with 100 microliters per well of 10 µg/ml anti-CD3 (PharMingen) antibody in phosphate buffered saline (PBS) and stored at 4°C one day before the experiment.
(§7) On the day of assay, anti-CD3 antibody coated plates are washed with PBS once to remove all soluble anti-CD3 antibody. […] All compounds and controls are assayed in triplicates.
In general terms: In an ELISA, binding on a coated surface is turned into a signal by an enzyme label.

In another data set the test system is IL-5. In words: Human primary Th2 cells, anti-CD3/anti-CD28 activated, IL-5 ELISA. In kind it is cell-based. The note with it: human primary Th2 cells, anti-CD3 and anti-CD28 (Table 5). As to the method: as §1, §2, §3, §4, §5, §6, §7
The next data set deals with IL-4. In words: Human primary Th2 cells, anti-CD3/anti-CD28 activated, IL-4 ELISA. In kind it is cell-based. The note with it: human primary Th2 cells, anti-CD3 and anti-CD28 (Table 5). The protocol: as §1, §2, §3, §4, §5, §6, §7
The subject of the next data set is IL-13. In words: Human primary Th2 cells, anti-CD3/anti-CD28 activated, IL-13 ELISA. In kind it is cell-based. The settings on record: human primary Th2 cells, anti-CD3 and anti-CD28 (Table 5). As to the method:
as §1, §2, §3, §4, §5, §6, §7

The next data set deals with Human Th2 cells. Nature of the data set: Human primary Th2 cells, proliferation (viability, MTS assay). The settings on record: human primary Th2 cells, anti-CD3 and anti-CD28 (Table 5); read-out: Prolif. IC50. In kind it is cell-based. The protocol:
as §1, §2, §3, §4, §5, §6, §7
(Tetrazolium assays rely on reduction of a dye to a coloured formazan, in cell work by metabolically active cells.)

A short description of a further data set: in vitro. The settings on record: mouse, swiss 3t3 fibroblasts. The protocol: A third assay utilized in the present invention involves an in vitro cytotoxicity assay. This assay is used to further characterize the compounds in order to assess toxic activities of compounds on contact inhibited, non-dividing 3T3 fibroblasts. Other toxicity assays may be used.
Contact inhibited Swiss 3T3 fibroblasts are purchased from ATCC. The cells are maintained in 1640 RPMI supplemented with 10% fetal bovine serum (Gibco).
On day of assay, cells are detached from flasks by trypsinization, washed in medium and counted. 100 microliters of 2.5 x 10^4 cells per well are plated into Falcon brand 96 well tissue culture plates and cells incubated at 37°C in presence of 5% CO2 for 2 days or until confluent.
[…] All compound dilutions are assayed in triplicate. […] Cells are returned to the incubator for 2 days.
After 2 day incubation, the 3T3 cells are assayed for viability using an MTS Assay Kit (Promega). Media is added to blank wells for background calculations. After 2 hours incubation in kit reagent, the optical density at 490 nm for each compound and control is determined by plate reader.
Results are expressed as percent cytotoxicity, i.e., (mean OD of compound wells - background OD)/ (mean OD of controls - background).
Note that starting concentration of CsA was 1 µM. […]

Broadly, the IC50 is the concentration at which inhibition is half-maximal. Turning to `CCOC(=O)c1[nH]c2ccccc2c1Nc1ccncc1` [Example 11, 3-(4-pyridinylamino)-1H-indole-2-carboxylic acid, ethyl ester], the IC50 in the data set with IFN-γ, with IL-5, in the data set on IL-4, with IL-13 and in the data set with Human Th2 cells was more than 10 µM each time.
As for `O=C(O)c1[nH]c2cc(Cl)cc(Cl)c2c1NS(=O)(=O)c1ccccc1` [Reference Example 91, 3-((Phenylsulfonyl)amino)-4,6-dichloro-1H-indole-2-carboxylic acid], the IC50 was more than 10 µM in the data set with IFN-γ; more than 10 µM in the data set with IL-5; 1 µM in the data set with IL-4; more than 10 µM with IL-13; more than 10 µM with Human Th2 cells.
`O=C(O)c1[nH]c2cc(Cl)cc(Cl)c2c1N(Cc1ccccc1)C(=O)c1ccccc1` [Reference Example 81, 3-((Benzoyl)benzylamino)-4,6-dichloro-1H-indole-2-carboxylic acid]: the 50% inhibitory concentration (IC50) in the data set on IFN-γ is 9.5 µM; in the data set on IL-5 it was 7 µM; in the data set on IL-4, 6 µM; in the data set with IL-13, more than 10 µM; with Human Th2 cells, more than 10 µM.
Consider `CN(C(=O)c1ccc(Cl)cc1)c1c(C(=O)O)[nH]c2cc(Cl)cc(Cl)c12` [Reference Example 80, 3-((4-chlorobenzoyl)methylamino)-4,6-dichloro-1H-indole-2-carboxylic acid], for which the IC50 in the data set on IFN-γ is more than 10 µM; with IL-5 it was more than 10 µM; with IL-4, 6 µM; in the data set with IL-13, more than 10 µM; in the data set on Human Th2 cells it was more than 10 µM.
Turning to `CCN(C(=O)c1ccccc1)c1c(C(=O)O)[nH]c2cc(Cl)cc(Cl)c12` [Reference Example 85, 3-((Benzoyl)ethlamino)-4,6-dichloro-1H-indole-2-carboxylic acid], the IC50 in the data set on IFN-γ is more than 10 µM; in the data set on IL-5, more than 10 µM; in the data set with IL-4 it was 0.9 µM; with IL-13, more than 10 µM; in the data set with Human Th2 cells, more than 10 µM.
A word on the viability: it is a read-out of living cells in per cent, often relative to untreated cells. With `CN(Cc1cnc2nc(N)nc(N)c2n1)c1ccc(C(=O)N[C@@H](CCC(=O)O)C(=O)O)cc1` [Methotrexate], in “in vitro”, the viability at 48 h, 0.001 µM was determined as 113%; the viability at 48 h, 0.003 µM is 105%; the viability at 48 h, 0.01 µM is 103%; the viability at 48 h, 0.03 µM stood at 100%. For the same compound, in “in vitro”, the viability at 48 h, 0.1 µM was 98.9%; the viability at 48 h, 3 µM was 93.8%; the viability at 48 h, 10 µM was found to be 92.4%.
Turning to `O=C(Nc1c(C(=O)O)[nH]c2cc(Cl)ccc12)c1ccccc1` [Reference Example 78, 3-((Benzoyl)amino)-6-chloro-1H-indole-2-carboxylic acid], the IC50 with IFN-γ is more than 10 µM; in the data set with IL-5, more than 10 µM; with IL-4 it was 0.3 µM; with IL-13 it was more than 10 µM; with Human Th2 cells, more than 10 µM.
Take `C[C@@H]1C[C@H]2[C@@H]3CCC4=CC(=O)C=C[C@]4(C)[C@@]3(F)[C@@H](O)C[C@]2(C)[C@@]1(O)C(=O)CO` [Dexamethasone]: in the data set “in vitro”, the viability at 48 h, 0.001 µM worked out at 100%; the viability at 48 h, 0.003 µM was determined as 77.9%; the viability at 48 h, 0.01 µM came to 71.6%; the viability at 48 h, 0.03 µM worked out at 67.8%. For the same compound, in “in vitro”, the viability at 48 h, 0.1 µM turned out to be 64.2%; the viability at 48 h, 3 µM turned out to be 60.7%; the viability at 48 h, 10 µM was found to be 60.5%.
For `CCOC(=O)c1c(Nc2ccncc2)c2ccccc2n1C` [Reference Example 24A, 1-Methyl-3-(4-pyridinylamino)-1H-indole-2-carboxylic ethyl ester], the IC50 in the data set on IFN-γ is more than 10 µM; in the data set on IL-5 it was more than 10 µM; with IL-4 it was 2 µM; with IL-13, more than 10 µM; in the data set on Human Th2 cells, more than 10 µM.
In the case of `CN(C(=O)CCc1ccccc1)c1c(C(=O)O)[nH]c2cc(Cl)ccc12` [Reference Example 76, 3-((3-Phenylpropanoyl)methylamino)-1H-6-chloro-indole-2-carboxylic acid], the IC50 in the data set with IFN-γ was more than 10 µM; in the data set with IL-5, more than 10 µM; with IL-4, 4 µM; in the data set on IL-13, more than 10 µM; in the data set with Human Th2 cells, more than 10 µM.
As for `CN(C)CCOC(=O)c1[nH]c2cc(Cl)ccc2c1NC(=O)c1ccccc1` [Example 79, 3-((Benzoyl)amino)-6-chloro-1H-indole-2-carboxylic acid 2-dimethylamino-ethyl ester], the IC50 was more than 10 µM with IFN-γ; more than 10 µM in the data set on IL-5; 5 µM with IL-4; more than 10 µM in the data set with IL-13; more than 10 µM with Human Th2 cells.
Take `CN(c1c(C(=O)O)[nH]c2cc(Cl)cc(Cl)c12)S(=O)(=O)c1ccccc1` [Reference Example 92, 3-((Phenylsulfonyl)methylamino)-4,6-dichloro-1H-indole-2-carboxylic acid]: the IC50 in the data set with IFN-γ is more than 10 µM; in the data set on IL-5, more than 10 µM; with IL-4, 0.45 µM; in the data set on IL-13, more than 10 µM; in the data set with Human Th2 cells, more than 10 µM.
In the case of `CN(C(=O)c1ccccc1)c1c(C(=O)O)[nH]c2cc(Cl)c(Cl)cc12` [Reference Example 84, 3-((Benzoyl)methylamino)-5,6-dichloro-1H-indole-2-carboxylic acid], the IC50 in the data set on IFN-γ was more than 10 µM; in the data set on IL-5, more than 10 µM; in the data set on IL-4, 1 µM; in the data set with IL-13, more than 10 µM; with Human Th2 cells it was more than 10 µM.
Take `CN(C(=O)c1ccccc1)c1c(C(=O)O)[nH]c2cc(Cl)cc(Cl)c12` [Reference Example 77, 3-((Benzoyl)methylamino)-4,6-dichloro-1H-indole-2-carboxylic acid]: the IC50 with IFN-γ was more than 10 µM; in the data set on IL-5, more than 10 µM; in the data set with IL-4 it was 3.6 µM; with IL-13, more than 10 µM; with Human Th2 cells it was more than 10 µM.
With `CCOC(=O)c1[nH]c2cc(Cl)cc(Cl)c2c1N(Cc1ccccc1)C(=O)c1ccccc1` [Example 89, 3-((Benzoyl)benzylamino)-4,6-dichloro-1H-indole-2-carboxylic acid ethyl ester], the IC50 with IFN-γ was more than 10 µM; in the data set on IL-5, 8 µM; with IL-4, 2.5 µM; in the data set on IL-13, more than 10 µM; with Human Th2 cells, 4 µM.
Regarding `O=C(Nc1c(C(=O)O)[nH]c2cc(Cl)cc(Cl)c12)c1ccccc1Cc1ccccc1` [Reference Example 87, 3-((2-Benzylbenzoyl)amino)-4,6-dichloro-1H-indole-2-carboxylic acid], the IC50 in the data set on IFN-γ is more than 10 µM; in the data set with IL-5 it was 2 µM; with IL-4 it was 0.6 µM; with IL-13, more than 10 µM; in the data set with Human Th2 cells it was more than 10 µM.
Turning to `CN(C(=O)c1ccccc1)c1c(C(=O)O)[nH]c2cc(F)ccc12` [Reference Example 86, 3-((Benzoyl)methylamino)-6-fluoro-1H-indole-2-carboxylic acid], the IC50 in the data set with IFN-γ was more than 10 µM; in the data set on IL-5, more than 10 µM; with IL-4 it was 1 µM; in the data set with IL-13 it was more than 10 µM; in the data set with Human Th2 cells it was more than 10 µM.
